Data: publication PMC7217877, “N-AS-triggered SPMs are direct regulators of microglia in a model of Alzheimer’s disease” (Nature Communications, 2020)
Several values for one entry are separate records, joined by “and”; a condition that tells them apart may be missing. Equal entries are not always repeated.

Key:
APP/PS1 mice = assay: Aβ in Lamp1+ phagolysosomes of microglia (Supplementary Fig 5a); format: in vivo, mouse; settings: N-AS vs vehicle APP/PS1
Experimental: Thioflavin S (Sigma-Aldrich) staining was carried out according to previously described procedures. We used 6E10 (mouse, 1:100, Signet, SIG39300), anti-20G10 (mouse, 1:1000, provided by D. R. Howlett, GlaxoSmithKline, Harlow, Essex, UK) for Aβ42, anti-G30 (rabbit, 1:1000, provided by D. R. Howlett) for Aβ40, SMA (mouse, 1:400, Sigma-Aldrich, A2547), AT8 (mouse, 1:500, Thermo Fisher Scientific, MN1020), Caspase-3 (mouse, 1:200, Novus Biologicals, NB100-56708), ac-S565 (rabbit, 1:100), COX2 (mouse, 1:250, Thermo Fisher Scientific, 35-8200), Iba1 (rabbit, 1:500, Wako, 019-19941 and goat, Abcam, ab5076), NeuN (mouse, 1:500, Millipore, MAB177), GFAP (rabbit, 1:500, Dako, N1506 and chicken, 1:500, Abcam, ab4674), and Lamp1 (mouse, 1:200, Abcam, ab24170). The sections were analyzed with a laser-scanning confocal microscope (FV3000; Olympus) or with a BX51 microscope (Olympus). MetaMorph software (Molecular Devices) was used to quantification. Three-dimensional reconstruction of microglia was recorded and analyzed using IMARIS software (Bitplane)[11]. For the analysis of age-dependent microglial COX2^+ CX3CR1^+ cells in WT and APP/PS1 mice, COX2 (rabbit, 1:100, Abcam, ab15191) and CX3CR1 (mouse, 1:100, BioLegend, 149008) antibody were used and the images were acquired on Alexa 488 and APC Channel with performed using Operetta CLS and Analysis Software 4.5 (Perkin-Elmer). […]

neuron [1] = assay: acetyl-CoA level in primary cells (assay kit); format: cell-based, C57BL/6 mice; settings: Ab 10mM, replicates
Experimental: To confirm the generation and roles of N-AS in neurons, cells from E18 C57BL/6 mice were prepared as previously described. Cortices were dissected and then dissociated followed by incubation in papain (Worthington) at 37 °C for 15 min. Neurons were plated on poly-L-lysine-coated coverslips with neuronal culture medium, serum-free Neurobasal medium (Gibco) containing 2% B27 supplements (Gibco), 1 mM Glutamax supplement (Gibco), and 100 U ml^−1 streptomycin/ 100 U ml^−1 penicillin (Gibco) at 37 °C in a humidified atmosphere of 5% CO2. […] Primary astrocyte cultures were prepared from C57BL/6 mice as described previously. In brief, after removal of the meninges, postnatal day 7 (P7) mouse brain tissues were minced and incubated in a rocking water bath at 37 °C for 30 min in the presence of 0.25% trypsin-EDTA (Sigma-Aldrich). Enzyme-digested dissociated cells were triturated with astrocyte-specific medium (DMEM/F12 containing 10% FBS and 1% penicillin-streptomycin) and centrifuged at 155×g for 8 min. The pellet was resuspended in astrocyte-specific medium and passed through a 40-μm cell strainer. […] The human microglia treated with Aβ 1–42 and/or zileuton was incubated with N-AS (2.5 μM, 2 h, Sigma-Aldrich, 01912), and were analyzed for the generation and roles of N-AS. […]

neuron [2] = assay: SphK activity in primary cells; format: cell-based, C57BL/6 mice; settings: Ab 10mM, replicates
Experimental: We confirmed S1P formation through SphK1 enzymatic activity measurements as previously described[11] using a UPLC (Ultra performance liquid chromatography) system (Waters). […] After pre-incubation, 1 mM ATP (Amresco, 0220) was added the mixture, and it was incubated at 37 °C for 1 h. The […] reactions were stopped by adding 53 μl of ethanol, and centrifuged at 15,493×g for 5 min. Thirty microliter of the supernatant was then transferred to a sampling glass vial and 5 μl was applied onto a UPLC system for analysis. S1P formation was followed as phosphorylation of (7-nitro-2-1,3-benzoxadiazol-4-yl)-d-erythro (NBD)-sphingosine (Avanti Polar Lipids) to NBD-S1P. Quantification was achieved by comparison with NBD-S1P (Avanti Polar Lipids) standards.
To confirm the generation and roles of N-AS in neurons, cells from E18 C57BL/6 mice were prepared as previously described. Cortices were dissected and then dissociated followed by incubation in papain (Worthington) at 37 °C for 15 min. […] The human microglia treated with Aβ 1–42 and/or zileuton was incubated with N-AS (2.5 μM, 2 h, Sigma-Aldrich, 01912), and were analyzed for the generation and roles of N-AS.

Molecule | microglia containing co-stained lysosomes and Aβ (APP/PS1 mice) | acetyl-CoA (Fig 3e) (neuron [1]) | SphK activity (Fig 3d) (neuron [2])
CCCCCCCCCCCCC/C=C/[C@@H](O)[C@H](CO)NC(C)=O [N-AS, N-((2S,3R,E)-1,3-Dihydroxyoctadec-4-en-2-yl)acetamide] | increased number of microglia containing co-stained lysosomes and Aβ |  | 
Ab: Aβ 1–42 (Invitrogen, 03112) used to induce an AD environment in cells |  | 0.1397 and 0.4178 and 0.62 and 0.7945 and 0.1176 and 0.7145 | 1.391 and 1.001 and 1.873 and 1.345 and 1.437 and 1.609
